Data: patent publication US6967196B1, “Sulfonamide compounds and uses thereof” (Bristol-Myers Squibb Company, priority 1999, dated 2005)
pIC50: −log10 of the molar value. Counter-ions that a name gives are not always drawn. Like-named read-outs stand apart in the source and are kept apart here.

Test system: amyloid β production in transfected H4 (human neuroglioma) cells stably expressing APP constructs
Assay: In vitro cell-based assay of inhibitors of amyloid β production (ELISA)
Details: transfected H4 cells stably expressing APP constructs, approximately 16 hours incubation, amyloid β in medium by ELISA, read-out: ACTIVITY (IC50, inhibition of amyloid β production)
How it was run: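 Transfected H4 cells stably expressing wild-type or variant APP were exposed to compounds (initial screen 10-100 μM) for about 16 h. Secreted Aβ in the medium was quantified by sandwich ELISA (C-terminal-specific monoclonal capture, N-terminal-specific polyclonal detection) against an Aβ standard curve; dose-response runs followed for actives.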

| SMILES | pIC50 (Homo sapiens, 16 h) | pIC50 | also measured |
| --- | --- | --- | --- |
| CN(C)CCCOc1ccccc1CN(c1ccccc1)S(=O)(=O)c1ccc([N+](=O)[O-])cc1 [Example 1083, N-{2-[3-(dimethylamino)propoxy]benzyl}-4-nitro-N-phenylbenzenesulfonamide] | < 5.00 | – | – |
| CN(C)CCCOc1ccccc1CN(c1ccccc1)S(=O)(=O)c1ccccc1[N+](=O)[O-] [Example 1084, N-{2-[3-(dimethylamino)propoxy]benzyl}-2-nitro-N-phenylbenzenesulfonamide] | < 5.00 | – | – |
| CN(C)CCCOc1ccccc1CN(c1ccccc1)S(=O)(=O)c1cccc2c(N(C)C)cccc12 [Example 1085, 5-(dimethylamino)-N-{2-[3-(dimethylamino)propoxy]benzyl}-N-phenyl-1-naphthalenesulfonamide] | < 5.00 | – | – |
| CC(C)(O)C#Cc1ccccc1CN(c1ccccc1)S(=O)(=O)c1ccc(Cl)cc1 [Example 1086, 4-chloro-N-[2-(3-hydroxy-3-methyl-1-butynyl)benzyl]-N-phenylbenzenesulfonamide] | < 5.00 | – | – |
| C[Si](C)(C)C#Cc1ccccc1CN(c1ccccc1)S(=O)(=O)c1ccc(Cl)cc1 [Example 1087, 4-chloro-N-phenyl-N-{2-[(trimethylsilyl)ethynyl]benzyl}benzenesulfonamide] | – | – | pIC50 (Homo sapiens): < 5.00 |
| O=S(=O)(c1ccccc1)N(Cc1ccccc1CCCO)c1ccccc1 [Example 1088, N-[2-(3-hydroxypropyl)benzyl]-N-phenylbenzenesulfonamide] | < 5.00 | – | – |
| O=S(=O)(c1ccc(Cl)cc1)N(Cc1cc(Cl)ccc1C#CCCO)c1ccccc1 [Example 1089, 4-chloro-N-[5-chloro-2-(4-hydroxy-1-butynyl)benzyl]-N-phenylbenzenesulfonamide] | < 5.00 | – | – |
| O=S(=O)(c1ccc(Cl)cc1)N(Cc1ccccc1OCc1cccnc1)c1ccccc1 [Example 1091, 4-chloro-N-phenyl-N-[2-(3-pyridinylmethoxy)benzyl]benzenesulfonamide hydrochloride] | < 5.00 | – | – |
| O=S(=O)(c1ccc(Cl)cc1)N(Cc1ccccc1OCc1ccccn1)c1ccccc1 [Example 1092, 4-chloro-N-phenyl-N-[2-(2-pyridinylmethoxy)benzyl]benzenesulfonamide hydrochloride] | < 5.00 | – | – |
| CS(=O)(=O)c1ccc(N(Cc2ccccc2OCCCN2CCCCC2)S(=O)(=O)c2ccc(Cl)cc2)cc1 [Example 1094, 4-chloro-N-[4-(methylsulfonyl)phenyl]-N-{2-[3-(1-piperidinyl)propoxy]benzyl}benzenesulfonamide hydrochloride] | < 5.00 | – | – |
| O=S(=O)(c1ccc(Sc2ccccc2)cc1)N(Cc1ccccc1OCCCSc1ccccc1)c1cc(F)ccc1F [Example 1095, N-(2,5-difluorophenyl)-4-(phenylsulfanyl)-N-{2-[3-(phenylsulfanyl)propoxy]benzyl}benzenesulfonamide] | < 5.00 | – | – |
| CCOC(=O)CCCc1ccccc1CN(c1ccccc1)S(=O)(=O)c1ccccc1[N+](=O)[O-] [Example 1096, ethyl 4-[2-({[(2-ntrophenyl)sulfonyl]anilino}methyl)phenyl]butanoate] | – | < 5.00 | – |
| CCCCCCCCCCCCCCCCCC(=O)N(C)CCOc1ccccc1C(C)N(c1cc(F)ccc1F)S(=O)(=O)c1ccc(Cl)cc1 (centres unmarked) [Example 1098] | – | < 5.00 | – |
| C[C@H](CCC[N+](=O)[O-])N(c1cc(Cl)ccc1Cl)S(=O)(=O)c1ccc(Cl)cc1 [Example 1099, 4-chloro-N-(2,5-dichlorophenyl)-N-[4-nitro-1(R)-methylbutyl]benzenesulfonamide] | ≥ 7.60 | – | – |
| C[C@H](CCCNS(C)(=O)=O)N(c1cc(Cl)ccc1F)S(=O)(=O)c1ccc(Cl)cc1 [Example 1100] | – | ≥ 7.60 | – |
| C[C@H](CCCN(C)S(C)(=O)=O)N(c1cc(Cl)ccc1F)S(=O)(=O)c1ccc(Cl)cc1 [Example 1101] | – | ≥ 7.60 | – |
| C[C@H](CCN1CCCCC1CS(C)(=O)=O)N(c1cc(Cl)ccc1Cl)S(=O)(=O)c1ccc(Cl)cc1 (stereo partly drawn) [Example 1102, 4-chloro-N-(2,5-dichlorophenyl)-N-[3-[2-[(methylsulfonyl)methyl]-1-piperidinyl]-1(R)-methylpropyl]benzenesulfonamide] | ≥ 7.60 | – | – |
| C[C@H](CCCN1CCSC1C(=O)O)N(c1cc(Cl)ccc1Cl)S(=O)(=O)c1ccc(Cl)cc1 (stereo partly drawn) [Example 1103, 4-chloro-N-(2,5-dichlorophenyl)-N-[4-(2-carboxy-3-thiazolidinyl)-1(R)-methylbutyl]benzenesulfonamide] | ≥ 7.60 | – | – |

| SMILES | pIC50 (Homo sapiens, 16 h) | pIC50 | also measured |
| --- | --- | --- | --- |
| COC(=O)C1SCCN1CCC[C@@H](C)N(c1cc(Cl)ccc1Cl)S(=O)(=O)c1ccc(Cl)cc1 (stereo partly drawn) [Example 1105, 4-chloro-N-(2,5-dichlorophenyl)-N-[4-(2-methoxycarbonyl-3-thiazolidinyl)-1(R)-methylbutyl]benzenesulfonamide] | ≥ 7.60 | – | – |
| CC(CC[C@@H](C)N(c1cc(Cl)ccc1Cl)S(=O)(=O)c1ccc(Cl)cc1)N1CCSC1C(=O)O (stereo partly drawn) [Example 1106, 4-chloro-N-(2,5-dichlorophenyl)-N-[4-(2-carboxy-3-thiazolidinyl)-1(R)-methylpentyl]benzenesulfonamide] | ≥ 7.60 | – | – |
| C[C@H](CCC[N+](=O)[O-])N(c1cc(Cl)ccc1F)S(=O)(=O)c1ccc(Cl)cc1 [Example 1107, 4-chloro-N-(5-chloro-2-fluorophenyl)-N-[4-nitro-1(R)-methylbutyl]benzenesulfonamide] | ≥ 7.60 | – | – |
| C[C@H](CCCN1CCCC(S(C)(=O)=O)C1)N(c1cc(Cl)ccc1Cl)S(=O)(=O)c1ccc(Cl)cc1 (stereo partly drawn) [Example 1108, 4-chloro-N-(2,5-dichlorophenyl)-N-[4-[(3-methylsulfonyl)-1-piperidinyl]-1(R)-methylbutyl]benzenesulfonamide] | – | ≥ 7.60 | – |
| C[C@H](CCCN1CCCC(S(C)(=O)=O)C1)N(c1cc(Cl)ccc1Cl)S(=O)(=O)c1ccc(Cl)cc1 (stereo partly drawn) [Example 1109, 4-chloro-N-(2,5-dichlorophenyl)-N-[4-[(3-methylsulfonyl)-1-piperidinyl]-1(R)-methylbutyl]benzenesulfonamide] | – | ≥ 7.60 | – |
| C[C@H](CCN1CCSC1C(=O)O)N(c1cc(Cl)ccc1Cl)S(=O)(=O)c1ccc(Cl)cc1 (stereo partly drawn) [Example 1111, 4-chloro-N-(2,5-dichlorophenyl)-N-[3-(2-carboxy-3-thiazolidinyl)-1(R)-methylpropyl]benzenesulfonamide] | 7.30 to 7.60 | – | – |
| C[C@H](CCCCN1CCC(S(C)(=O)=O)C1)N(c1cc(Cl)ccc1Cl)S(=O)(=O)c1ccc(Cl)cc1 (stereo partly drawn) [Example 1112, 4-chloro-N-(2,5-dichlorophenyl)-N-[5-[(3-methylsulfonyl)-1-pyrrolidinyl]-1(R)-methylpentyl]benzenesulfonamide] | – | 7.30 to 7.60 | – |
| CC(=O)NCCC[C@@H](C)N(c1cc(Cl)ccc1Cl)S(=O)(=O)c1ccc(Cl)cc1 [Example 1113, 4-chloro-N-(2,5-dichlorophenyl)-N-[4-(acetylamino)-1(R)-methylbutyl]benzenesulfonamide] | 7.30 to 7.60 | – | – |
| CC(CCCN1CCOCC1)N(c1cc(Cl)ccc1F)S(=O)(=O)c1ccc(Cl)cc1 (centres unmarked) [Example 1114, 4-chloro-N-(5-chloro-2-fluorophenyl)-N-[4-(4-morpholinyl)-1-methylbutyl]benzenesulfonamide] | 7.30 to 7.60 | – | – |
| C[C@H](CCCCN1CCCC(S(C)(=O)=O)C1)N(c1cc(Cl)ccc1Cl)S(=O)(=O)c1ccc(Cl)cc1 (stereo partly drawn) [Example 1115, 4-chloro-N-(2,5-dichlorophenyl)-N-[5-[(3-methylsulfonyl)-1-piperidinyl]-1(R)-methylpentyl]benzenesulfonamide] | – | 7.30 to 7.60 | – |
| COC(=O)C1SCCN1CCCC[C@@H](C)N(c1cc(Cl)ccc1Cl)S(=O)(=O)c1ccc(Cl)cc1 (stereo partly drawn) [Example 1117, 4-chloro-N-(2,5-dichlorophenyl)-N-[5-(2-methoxycarbonyl-3-thiazolidinyl)-1(R)-methylpentyl]benzenesulfonamide] | 7.30 to 7.60 | – | – |
| C[C@H](CCN1CCCC(S(C)(=O)=O)C1)N(c1cc(Cl)ccc1Cl)S(=O)(=O)c1ccc(Cl)cc1 (stereo partly drawn) [Example 1118, 4-chloro-N-(2,5-dichlorophenyl)-N-[3-[(3-methylsulfonyl)-1-piperidinyl]-1(R)-methylpropyl]benzenesulfonamide] | – | 7.30 to 7.60 | – |
| COC(=O)C1SCCN1CC[C@@H](C)N(c1cc(Cl)ccc1Cl)S(=O)(=O)c1ccc(Cl)cc1 (stereo partly drawn) [Example 1119, 4-chloro-N-(2,5-dichlorophenyl)-N-[3-(2-methoxycarbonyl-3-thiazolidinyl)-1(R)-methylpropyl]benzenesulfonamide] | 7.30 to 7.60 | – | – |
| CC(C)Oc1c(NCCC[C@@H](C)N(c2cc(F)ccc2F)S(=O)(=O)c2ccc(Cl)cc2)c(=O)c1=O [Example 1120, 4-chloro-N-(2,5-difluorophenyl)-N-[4-(2-isopropoxy-3,4-dioxo-1-cyclobutenyl)amine-1(R)-methylbutyl]benzenesulfonamide] | – | 7.30 to 7.60 | – |
| C[C@H](CCCN1CCCCC1CS(C)(=O)=O)N(c1cc(Cl)ccc1Cl)S(=O)(=O)c1ccc(Cl)cc1 (stereo partly drawn) [Example 1121, 4-chloro-N-(2,5-dichlorophenyl)-N-[4-[2-[(methylsulfonyl)methyl]-1-piperidinyl]-1(R)-methylbutyl]benzenesulfonamide] | 7.00 to 7.30 | – | – |
| CC(C)Oc1c(NCCC[C@@H](C)N(c2cc(Cl)ccc2F)S(=O)(=O)c2ccc(Cl)cc2)c(=O)c1=O [Example 1122, 4-chloro-N-(5-chloro-2-fluorophenyl)-N-[4-(2-isopropoxy-3,4-dioxo-1-cyclobutenyl)amine-1(R)-methylbutyl]benzenesulfonamide] | – | 7.00 to 7.30 | – |
| C[C@H](CCCCN1CCC(S(C)(=O)=O)CC1)N(c1cc(Cl)ccc1Cl)S(=O)(=O)c1ccc(Cl)cc1 [Example 1123, 4-chloro-N-(2,5-dichlorophenyl)-N-[5-[(4-methylsulfonyl)-1-piperidinyl]-1(R)-methylpentyl]benzenesulfonamide] | – | 7.00 to 7.30 | – |
